This is an account of results in ChEMBL document CHEMBL1150315, “Potent and orally bioavailable zwitterion GnRH antagonists with low CYP3A4 inhibitory activity” (Bioorg Med Chem Lett, 2008).

The structures appear in SMILES notation.

Data set [1] in a line: Oral bioavailability in cynomolgus monkey at 10 mg/kg. In kind it is ADME, organism-based, Macaca fascicularis. Particulars: in vivo.
Data set [2] in a line: Half life in Sprague-Dawley rat at 10 mg/kg, iv. In kind it is ADME, organism-based. Details: dose 10 mg/kg, route intravenous. As to conditions: in vivo.
Data set [3] in a line: Tmax in Sprague-Dawley rat at 10 mg/kg, po or 10 mg/kg, iv. Type of data set: ADME, organism-based. As to conditions: in vivo.
Data set [4] is described as follows: Clearance in Sprague-Dawley rat at 10 mg/kg, iv. Particulars: in vivo. On the set-up: dose 10 mg/kg, route intravenous. In kind it is ADME, organism-based.
Data set [5] in a line: Dissociation constant, pKa of the compound. Type of data set: physicochemical.
A short description of data set [6]: AUC in cynomolgus monkey at 10 mg/kg, po. In kind it is ADME, organism-based, Macaca fascicularis. On the set-up: dose 10 mg/kg, route oral. As to conditions: plasma.
Data set [7] in a line: Volume of distribution in cynomolgus monkey at 10 mg/kg, iv. In kind it is ADME, organism-based, Macaca fascicularis. Details: dose 10 mg/kg, route intravenous. Particulars: in vivo.
A short description of data set [8]: Volume of distribution in Sprague-Dawley rat at 10 mg/kg, iv. On the set-up: dose 10 mg/kg, route intravenous. In kind it is ADME, organism-based. As to conditions: in vivo.
A short description of data set [9]: Lipophilicity, log D at pH 7.4. Type of data set: physicochemical. As to conditions: buffer.
Data set [10] in a line: AUC in Sprague-Dawley rat at 10 mg/kg, po. Type of data set: ADME, organism-based. On the set-up: dose 10 mg/kg, route oral. Particulars: plasma.
Data set [11] is described as follows: Half life in cynomolgus monkey at 10 mg/kg, iv. Type of data set: ADME, organism-based, Macaca fascicularis. On the set-up: dose 10 mg/kg, route intravenous. Particulars: in vivo.
A short description of data set [12]: Cmax in Sprague-Dawley rat at 10 mg/kg, po or 10 mg/kg, iv. As to conditions: in vivo. In kind it is ADME, organism-based.
A short description of data set [13]: Oral bioavailability in Sprague-Dawley rat at 10 mg/kg. In kind it is ADME, organism-based. Particulars: in vivo.
Data set [14] in a line: Clearance in cynomolgus monkey at 10 mg/kg, iv. In kind it is ADME, organism-based, Macaca fascicularis. Particulars: in vivo. On the set-up: dose 10 mg/kg, route intravenous.
A short description of data set [15]: Cmax in cynomolgus monkey at 10 mg/kg, po. As to conditions: in vivo. Details: dose 10 mg/kg, route oral. In kind it is ADME, organism-based, Macaca fascicularis.
Data set [16] is described as follows: Tmax in cynomolgus monkey at 10 mg/kg, po. As to conditions: in vivo. On the set-up: dose 10 mg/kg, route oral. Type of data set: ADME, organism-based, Macaca fascicularis.

Consider `COc1cccc(-c2cn(Cc3c(F)cccc3C(F)(F)F)c(=O)n(C[C@H](NCCCC(=O)O)c3ccccc3)c2=O)c1F`, for which the bioavailability came to 22.6% in data set [1] and 2.4% in data set [13]. Moreover, the half-life was 18 min in data set [2] and 60 min in [11]. For the same molecule, the values for the Tmax in data set [3] and in data set [16] were 15 min and 30 min, respectively. The clearance in data set [4] was 64.1 mL/min/kg; in data set [14], 20.9 mL/min/kg. In data set [5], the pKa amounted to 4.16. Besides, the AUC is 1900 ng·h/mL in data set [6] and 63.3 ng·h/mL in [10]. Also, the Vd amounted to 1.8 L/kg in data set [7] and 1.7 L/kg in data set [8]. The same molecule displayed a logD in data set [9] of 1.8. Also, the Cmax in data set [12] worked out at 77 ng/mL; in [15], 2040 ng/mL.

On to `O=C(O)CCCN[C@@H](Cn1c(=O)c(-c2ccccc2Cl)cn(Cc2c(F)cccc2C(F)(F)F)c1=O)c1ccccc1`, for which the values for the bioavailability in data set [1] and in data set [13] were 52.7% and 3%, respectively. Besides, the half-life in data set [2] is 24 min; in data set [11], 450 min. The values for the Tmax in data set [3] and in data set [16] were 15 min and 37.8 min, respectively. Besides, the clearance in [4] was determined as 37.6 mL/min/kg; in data set [14], 7.9 mL/min/kg. The AUC amounted to 11100 ng·h/mL in data set [6] and 132 ng·h/mL in [10]. Further, the Vd in data set [7] turned out to be 4.9 L/kg; in data set [8], 1.3 L/kg. Besides, the logD in [9] came out at 2.1. Also, the values for the Cmax in [12] and in data set [15] were 149 ng/mL and 7870 ng/mL, respectively.
